Measurements taken from EP0338532A2, “N-alkylamino derivates of aromatic, tricyclic compounds in the treatment of drug-resistant protozoal infections” (priority 1988, dated 1989).

Key:
P. falciparum (FCR3) = assay: [3H]-hypoxanthine incorporation, parasite growth inhibition (chloroquine-resistant strain FCR3); format: cell-based, Plasmodium falciparum
Description: P. falciparum (clone D6, chloroquine-sensitive; strain FCR3, chloroquine-resistant; and clone W2, multidrug-resistant) was grown in vitro by the method of Trager and Jensen, (1976) Science 193, 673-675. • Figure 1 illustrates the effect of desipramine on the inhibition of parasite growth. […] Isobologram analysis was carried out according to the method of Martin, et al., (1987) Science 235, 899-901 and Berenbaum, (1978) Journal of Infectious Diseases 137, 122-130. […] The X-axis is the IC₅₀ (concentration of drug which inhibits hypoxanthine incorporation by 50%) of chloroquine in the absence or presence of desipramine while the Y-axis is the IC₅₀ for desipramine in the absence or presence of chloroquine. […] Dose-response curves and IC₅₀'s for chloroquine were determined either in the absence of desipramine or in the presence of a fixed concentration of desipramine ranging from 50 ng desipramine/ml up to 500 ng desipramine/ml. […] Clinically achievable plasma concentrations of desipramine in depressed patients are in the range of 50 - 200 ng/ml. Desipramine (500 ng/ml) lowered the IC₅₀ and IC₉₀ for chloroquine by 10-fold. An IC₅₀ for a chloroquine-sensitive P. falciparum strain would be approximately 5 ng/ml. Therefore in the presence of clinically relevant concentrations of desipramine, the chloroquine-resistant P. falciparum strain is as sensitive to chloroquine as is the "sensitive" strain. • Figure 4 illustrates the ability of desipramine to enhance the potency of chloroquine against P. falciparum (W2). The experiment is identical to that of Figure 3 but a different strain of P. falciparum was used. […] The IC₅₀ and IC₉₀ for chloroquine are lowered by a factor of approximately 10. […] The anti-psycotic, chloropromazine, was substituted for desipramine in an experiment similar to that in Figure 2. • Figure 7. […] Uptake of [3H]-chloroquine was followed in clone D6 (chloroquine susceptible, ·) and in clone W2 (multidrug-resistant, o) in the absence or presence of desipramine.

[1] = system: chloroquine-sensitive P. falciparum strain; conditions: stated as 'would be approximately'; cited from earlier work
[2] = system: chloroquine-susceptible clone D6 of P. falciparum; assay: [3H]-hypoxanthine incorporation, parasite growth inhibition (chloroquine-susceptible clone D6); format: cell-based, Plasmodium falciparum; conditions: Figure 5, experiment similar to Figures 3 and 4
Description: (§1) P. falciparum (clone D6, chloroquine-sensitive; strain FCR3, chloroquine-resistant; and clone W2, multidrug-resistant) was grown in vitro by the method of Trager and Jensen, (1976) Science 193, 673-675. • Figure 1 illustrates the effect of desipramine on the inhibition of parasite growth. […] Isobologram analysis was carried out according to the method of Martin, et al., (1987) Science 235, 899-901 and Berenbaum, (1978) Journal of Infectious Diseases 137, 122-130. […] The X-axis is the IC₅₀ (concentration of drug which inhibits hypoxanthine incorporation by 50%) of chloroquine in the absence or presence of desipramine while the Y-axis is the IC₅₀ for desipramine in the absence or presence of chloroquine. […] Dose-response curves and IC₅₀'s for chloroquine were determined either in the absence of desipramine or in the presence of a fixed concentration of desipramine ranging from 50 ng desipramine/ml up to 500 ng desipramine/ml. […] Clinically achievable plasma concentrations of desipramine in depressed patients are in the range of 50 - 200 ng/ml. Desipramine (500 ng/ml) lowered the IC₅₀ and IC₉₀ for chloroquine by 10-fold. An IC₅₀ for a chloroquine-sensitive P. falciparum strain would be approximately 5 ng/ml. […]

P. falciparum (W2) = format: cell-based, Plasmodium falciparum
Description: as §1

[3] = depressed patients; cited from earlier work
[4] = system: clone W2 (multidrug-resistant); assay: Uptake of [3H]-chloroquine by parasites (clone W2); format: cell-based, P. falciparum; conditions: Figure 7; drug-resistant parasites, presence vs absence of desipramine
Description: as §1

[5] = Figure 3, desipramine 500 ng/ml, FCR3

CN(C)CCCN1c2ccccc2Sc2ccc(Cl)cc21 [chloropromazine]
synergism of chloropromazine and chloroquine (isobologram) (P. falciparum (FCR3); Figure 6, experiment similar to Figure 2, combination with chloroquine): synergism

CCN(CC)CCCC(C)Nc1ccnc2cc(Cl)ccc12 (stereo not drawn) [chloroquine]
IC50 [1]: approximately 5 ng/ml

CNCCCN1c2ccccc2CCc2ccccc21 [desipramine, Desipramine]
change of the response to chloroquine [2]: does not change the response
effects on P. falciparum when desipramine was added alone (P. falciparum (W2); Figure 4, at the desipramine concentrations used, without chloroquine): only slight effects
sensitivity of the strain to desipramine (P. falciparum (W2); W2 compared with FCR3): more sensitive
Clinically achievable plasma concentrations [3]: 50 to 200 ng/mL
accumulation of chloroquine by parasites [4]: increases the accumulation of chloroquine
lowering of the IC50 for chloroquine (P. falciparum (FCR3); [5]): 10 fold
lowering of the IC90 for chloroquine (P. falciparum (FCR3); [5]): 10 fold
